# Test results published in patent US20200316084A1, “METHODS TO TARGET TRANSCRIPTIONAL CONTROL AT SUPER-ENHANCER REGIONS” (TOLERO PHARMACEUTICALS, INC., priority 2014, published 2020).
# Columns and labels:
# [1] = Body weight of MV4-11 xenograft mice; assay type: in vivo, athymic Nu/Nu mice; conditions: throughout the study; 25 mg/kg JQ-1, 2.5 mg/kg alvocidib or both
# Text: (§1) The AML cell line, MV4-11 is MLL fusion and FLT3-ITD positive. The MLL fusion makes this cell line particularly dependent upon super-enhancer function for driving oncogenesis. MV4-11 cells were implanted subcutaneously in athymic Nu/Nu mice and allowed to establish until tumors reached 100-200 mm^3. JQ-1, a BET protein inhibitor, and alvocidib, a Cdk inhibitor, were used alone and in combination in order to determine the effect of the drug(s) on tumor volume. Animals were stratified into 4 groups and administered one of four treatments: vehicle, 25 mg/kg JQ-1, 2.5 mg/kg alvocidib, or a combination of the two drugs at these doses. The drugs were administered intraperitoneally, once daily for 5 days, for a total of 3 weeks. Tumor volume was measured twice weekly by caliper measurement. […] Weight gain in vehicle and individual drug-treated mice could be attributed to tumor growth. Weight gain in the mice given the combination treatment could be attributed to the overall health and food intake of the mice.
# MV4-11 = assay: Cell viability by Cell Titer GLO, MV4-11; assay type: cell-based; conditions: then 48 h inhibitor
# Method: (§2) MOLM13 and MV4-11 are MLL fusion and FLT3-ITD positive, AML cells lines. Both cell lines were treated with 20 nM of alvocidib, a Cdk inhibitor, for 48 hours or DMSO control, followed by the addition of JQ-1, an inhibitor of BET proteins, at various concentrations (10 μM-0.0003 μM) or by the addition of panobinostat, an inhibitor of HDAC, at various concentrations (10 μM-0.0003 μM) for 48 additional hours. At completion, cell viability was measured by Cell Titer GLO reagent. IC50 values were determined for JQ-1 and panobinostat with and without the low dose of alvocidib. Addition of 20 nM alvocidib increased the potency of JQ-1, as shown by an IC50 value of 2-fold lower.
# MOLM13 = assay: Cell viability by Cell Titer GLO, MOLM13; assay type: cell-based; conditions: for IC50: MOLM13, then 48 h inhibitor
# Method: as §2
# c-MYC = c-MYC expression by RT-qPCR in MV4-11 cells; assay type: cell-based; conditions: 2 hours, various concentrations
# Method: The c-MYC gene is well known to be regulated by the super-enhancer complex in AML cells. JQ-1, a BET protein inhibitor, and alvocidib, a Cdk inhibitor, were used alone and in combination in order to determine the effect of the drug(s) on c-MYC expression. MV4-11 cells were treated with various concentrations of alvocidib and/or JQ-1 for 2 hours. DMSO-treated controls were also included. Treatment was stopped by lysing the cells and isolating RNA for RT-qPCR analysis. The expression of c-MYC was determined and normalized to the housekeeping gene, HPRT1 and to the DMSO-treated control.
# MV4-11 cells = assay: MV4-11 subcutaneous xenograft, tumor volume by caliper; assay type: in vivo, athymic Nu/Nu mice; conditions: for effect on tumor volume: 25 mg/kg JQ-1, 2.5 mg/kg alvocidib or both, intraperitoneally once daily for 5 days, total of 3 weeks
# Text: as §1
# MCL-1 [2] = assay: MCL-1 mRNA expression in A549 cells, RT-qPCR; assay type: cell-based, human; conditions: 0-8 μM, 2 hours
# Method: (§5) A549 cells were seeded and treated with alvocidib at concentrations ranging from 0-8 μM for 2 hours. Following the treatment of solid tumor cells, cells were harvested and mRNA was detected using RT-qPCR in the manner described in previous examples.
# MCL-1 and c-MYC/N-MYC [3] = assay: Protein expression by western blotting in A549 cells; assay type: cell-based, human; conditions: 100 nM, time course
# Method: (§3) A549 cells and SK-N-AS cells (human adrenal neuroblastoma cell line) were seeded and treated with alvocidib at concentrations of 100 nM and 300 nM respectively. Cells were collected at given times and total protein was extracted and detected using western blotting.
# MCL-1 [4] = assay: MCL-1 expression relative to HPRT in MV4-11 cells; assay type: cell-based; conditions: alvocidib single agent, two hours
# Method: (§4) To determine the MYC and MCL-1 inhibitory activity of alvocidib, MV4-11 cells were treated with alvocidib for two hours and the expression of MYC and MCL-1 relative to HPRT was determined.
# MYC [5] = assay: MYC expression relative to HPRT in MV4-11 cells; assay type: cell-based; conditions: alvocidib single agent, two hours
# Method: as §4
# MYC [6] = assay: MYC mRNA expression in A549 cells, RT-qPCR; assay type: cell-based, human; conditions: 0-8 μM, 2 hours
# Method: as §5
# MCL-1 and c-MYC/N-MYC [7] = assay: Protein expression by western blotting in SK-N-AS cells; assay type: cell-based, human; conditions: 300 nM, time course
# Method: as §3
# [8] = tested on: super enhancer complex regulated genes; assay: Super enhancer complex regulated genes, mRNA expression in A549 cells; assay type: cell-based, human
# Method: A549 cells are adenocarcinomic human alveolar basal epithelial cells used as a type II pulmonary epithelial model (solid tumor). These cells were seeded and treated with alvocidib in identical concentrations and doses. Treatment was stopped by lysing the cells and isolating RNA for RT-qPCR analysis. […] The expression of mRNA was determined and normalized to β-actin and the control.
# MCL-1 [9] = assay: MCL-1 mRNA expression time course in MV4-11 cells, RT-qPCR; assay type: cell-based; conditions: MV4-11, 100 nM
# Method: MV4-11 cells were seeded and treated with alvocidib at a concentration of 100 nM. […] Cells were harvested and detection of mRNA was carried out using RT-qPCR analysis in the manner described in previous examples. Expression of MCL-1 was compared to expression of controls and untreated cells. […] There appears to be no inhibition on expression by the 3 hour time point.
# MCL-1 [10] = assay: MCL-1 mRNA expression in A549 cells, alvocidib with JQ-1, RT-qPCR; assay type: cell-based, human; conditions: JQ-1 0 nM-50 nM 1 hour, then alvocidib 0 nM-100 nM 2 hours
# Method: A549 cells were seeded and treated with alvocidib at concentrations ranging from 0 nM-100 nM in combination with JQ-1 at concentrations ranging from 0 nM-50 nM. Cells were first treated with JQ-1 for 1 hour followed by treatment with alvocidib for 2 hours.
# CDK9 and Hexim1 = CDK9 and Hexim1 (Homo sapiens, UniProt P50750); assay: CDK9/Hexim1 association, immunoprecipitation and western blotting in MV4-11 cells; assay type: cell-based
# Sequence of CDK9 and Hexim1 (P50750 whole entry): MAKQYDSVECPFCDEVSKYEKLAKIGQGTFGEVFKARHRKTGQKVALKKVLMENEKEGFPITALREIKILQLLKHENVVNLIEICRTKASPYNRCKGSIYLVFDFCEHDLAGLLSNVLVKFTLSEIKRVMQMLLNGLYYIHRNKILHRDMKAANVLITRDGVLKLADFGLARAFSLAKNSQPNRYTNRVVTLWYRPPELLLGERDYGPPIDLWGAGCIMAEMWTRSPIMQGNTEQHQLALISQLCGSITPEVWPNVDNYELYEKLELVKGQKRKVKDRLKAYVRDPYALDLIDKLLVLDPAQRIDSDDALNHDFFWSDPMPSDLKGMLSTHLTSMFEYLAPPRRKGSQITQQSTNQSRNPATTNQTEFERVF
# Sequence of CDK9 and Hexim1 (O60563 whole entry partner): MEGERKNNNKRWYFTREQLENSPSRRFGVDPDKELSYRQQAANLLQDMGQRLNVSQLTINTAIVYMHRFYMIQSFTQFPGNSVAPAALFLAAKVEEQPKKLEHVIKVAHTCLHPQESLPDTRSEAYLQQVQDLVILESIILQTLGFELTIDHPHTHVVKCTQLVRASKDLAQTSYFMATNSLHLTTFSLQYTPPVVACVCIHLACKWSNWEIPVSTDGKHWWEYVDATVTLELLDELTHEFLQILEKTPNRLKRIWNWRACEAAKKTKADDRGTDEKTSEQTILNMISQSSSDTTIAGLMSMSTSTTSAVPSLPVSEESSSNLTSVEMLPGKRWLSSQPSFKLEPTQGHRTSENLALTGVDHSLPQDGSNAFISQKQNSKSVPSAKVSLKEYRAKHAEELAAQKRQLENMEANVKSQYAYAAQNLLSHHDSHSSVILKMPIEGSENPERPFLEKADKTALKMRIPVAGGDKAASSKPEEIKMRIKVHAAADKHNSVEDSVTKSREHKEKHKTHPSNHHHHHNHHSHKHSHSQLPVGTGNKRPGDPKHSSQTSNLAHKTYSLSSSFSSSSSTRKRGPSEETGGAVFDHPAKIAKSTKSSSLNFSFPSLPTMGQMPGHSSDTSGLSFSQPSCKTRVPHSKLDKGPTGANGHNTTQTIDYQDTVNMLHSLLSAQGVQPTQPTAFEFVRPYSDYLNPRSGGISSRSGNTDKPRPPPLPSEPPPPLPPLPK
# Method: MV4-11 cells were seeded and treated with alvocidib in identical concentrations and doses. Cells were collected at given times and subjected to high salt lysis buffer and immunoprecipitation followed by western blotting. […] FIGS. 11A and 11B provide results of a dose escalation study performed according to the above general procedure. […] Representative western blot is provided in FIG. 11A with quantification of the western blot in FIG. 11B.
# Representative western blot is provided in FIG. 12A with quantification of the western blot in FIG. 12B.
smiles,measurement,setting,value
Cc1sc2c(c1C)C(c1ccc(Cl)cc1)=N[C@@H](CC(=O)OC(C)(C)C)c1nnc(C)n1-2 [JQ-1],body weight,[1],comparable
same,IC50,MV4-11; 20 nM alvocidib 48 h,133 nM
same,IC50,MV4-11; without alvocidib (DMSO 48 h),228 nM
same,IC50,MOLM13; 20 nM alvocidib 48 h,209 nM
same,IC50,MOLM13; without alvocidib (DMSO 48 h),526 nM
same,fold lower IC50 on addition of 20 nM alvocidib,MOLM13; MOLM13 and MV4-11,2 fold
same,expression of c-MYC normalized to HPRT1 and DMSO control,c-MYC,downregulated
same,effect on tumor volume,MV4-11 cells,no measurable activity
CN1CC[C@H](c2c(O)cc(O)c3c(=O)cc(-c4ccccc4Cl)oc23)[C@H](O)C1 [alvocidib],MCL-1 mRNA expression relative to HPRT1,MCL-1 [2],represses MCL-1 mRNA expression in a dose dependent manner
same,protein expression of MCL-1 and c-MYC/N-MYC,MCL-1 and c-MYC/N-MYC [3],represses protein expression
same,reduction of MCL-1 expression,MCL-1 [4],60%
same,MYC expression,MYC [5],completely eliminates
same,MYC mRNA expression relative to HPRT1,MYC [6],represses MYC mRNA expression in a dose dependent manner
same,protein expression of MCL-1 and c-MYC/N-MYC,MCL-1 and c-MYC/N-MYC [7],represses protein expression
same,mRNA expression,"[8]; 0.1 μM dose, 2 hour time point",noticeably repressed
same,expression of mRNA normalized to β-actin and control,[8]; 24 and 48 hour time points,downregulated the expression of mRNA completely
same,mRNA expression relative to β-actin and vehicle control,"[8]; doses of 1 μM up to 8 μM, 2 hours",Complete repression
same,MCL-1 mRNA expression,MCL-1 [9]; 30 minute time point,repressed
same,MCL-1 mRNA expression,MCL-1 [9]; 1 hour post-dose,maximum repression
same,MCL-1 mRNA expression,MCL-1 [9]; 2 hour time point,repression is reduced
same,MCL-1 mRNA expression,MCL-1 [9]; 3 hour time point,no inhibition
same,body weight,[1],comparable
same,expression of c-MYC normalized to HPRT1 and DMSO control,c-MYC,downregulated
same,MCL-1 mRNA expression,MCL-1 [10],represses MCL-1 mRNA expression
same,CDK9/Hexim1 association,"CDK9 and Hexim1; 500 nM dose, half hour time point",increased CDK9/Hexim1 association
same,association of CDK9 and Hexim1,"CDK9 and Hexim1; 1 mM alvocidib, time course",increases association of CDK9 and Hexim1 in a time dependent manner
same,CDK9/Hexim1 association,"CDK9 and Hexim1; 2 hr treatment, different doses",dose dependent increase
same,tumor size relative to vehicle,"MV4-11 cells; 2.5 mg/kg alvocidib i.p., throughout the study",approximately 50%
same,effect on tumor volume,MV4-11 cells,moderate activity
"Cc1[nH]c2ccccc2c1CCNCc1ccc(/C=C/C(=O)NO)cc1 [Panobinostat, panobinostat]",IC50,"MV4-11; Homo sapiens, MV4-11, 48 h, 20 nM alvocidib 48 h",3 nM
same,IC50,"MV4-11; Homo sapiens, MV4-11, 48 h, without alvocidib (DMSO 48 h)",18 nM
same,IC50,"MOLM13; Homo sapiens, MOLM-13, 48 h, 20 nM alvocidib 48 h",5 nM
same,IC50,"MOLM13; Homo sapiens, MOLM-13, 48 h, without alvocidib (DMSO 48 h)",16 nM
